The conditions of assay [1]: products of Asn^8 deamidation of [Leu^27]-GRF(1-32)-NH2 at pH 7.4, literature; cited from earlier work.
The conditions of assay [2]: literature; cited from earlier work.
A further assay has as its system rat pituitary cells. The class given is cell-based. Here is the method: The biological activity of the novel peptides were compared with that of a synthetic standard of the natural sequence of GRF(1-44)-NH2 (SEQ ID NO: 1-NH2) which was isolated from a human pancreatic tumor of an individual suffering from acromegaly (Salk Institute standard hp-GRF-NH2 (NL-A-10)). The assay for biological activity, which is based on the ability to stimulate production of growth hormone in rat pituitary cells in tissue culture, was performed in the following manner. Pituitaries from 30-40 male Sprague-Dawley rats (175 g) were removed aseptically after decapitation. The anterior lobes were collected, washed 3 times in sterile Hepes buffer (0.025M)(pH 7.35) and dispersed at 37° C. in 20-30 ml Hepes buffer (pH 7.35) containing collagenase (4 mg per ml) and Dispase (Protease grande II, 2 mg per ml). After gentle 80 min. vortexing and trituration by Pasteur pipette, the dispersed cells were separated by centrifugation (150×g, 4 min.) and re-suspended in Hepes buffer containing neuraminidase (4 mg/ml), and […] ethylenediaminetetraacetic acid (EDTA) disodium salt pH 7.35, for 10 min. The cells were washed twice with plating medium and plated on multiwell-plates (1.5×10^5 cells per ml) using the following defined medium: F-12/DMEM/BGJ(6:3:1) (Gibco: 430-1700/430-1600/320-2591) with 2 g BSA/L., 2.38 g Hepes/L.,50 mg Gentamycin/L (Schering Co.). The medium in each well was supplemented either with the novel peptide or natural GRF(1-44)-NH2 (SEQ ID NO: 1-NH2) at concentrations ranging from 3.1 to 200 fmol. per ml. of medium. Control wells contained no supplement. Plating was done with this medium added with 2% fetal calf serum to ensure rapid fixation of the cells. On the fourth day the cells were washed twice with the defined medium without fetal calf serum. Finally […] of defined medium was added to each well plus […] of the same medium containing each individual treatment, in triplicate. After 3 hours of incubation the medium was collected and diluted as required to conduct radioimmunoassay (RIA) for rat growth hormone. RIAs were conducted using Sinha's anti-murine GH immune serum and procedures according to the National Pituitary Agency using protein A to precipitate antibody antigen complex.

Another assay deals with crossbred swine. Description: In vivo GRF analog administration in swine, serum GH by RIA (GH AUC). The conditions noted are these: relative to GRF(1-29)-NH2. Here is the method:
In vivo GRF analog studies were performed in crossbred swine (approximately70 lbs; Hoffmann-La Roche Experimental Research Facility) housed in individual metabolism cages with food and water freely available. For each GRF analog examined, six pigs were arranged in a 6×6 latin square design, such that each pig received a different dose (0 [saline], 0.3, 1.0, 3.0, 6.0 or 10.0 μg/kg body weight) over a six day period. […] All swine were cannulated via the femoral artery under halothane/ketamine HCL/xylezine anesthesia for subsequent (2-3 days) blood sampling. GRF analog was administered by subcutaneous injection in porcine gelatin. Pretreatment (control) blood samples were taken every 30 min from 8:30-9:30 a.m. Treatment doses were administered beginning at 10:00 a.m. One hr post-dosing, animals were sampled at 10 min intervals; 2nd hr post-dosing, animals were sampled at 15 min intervals; 3rd hr post-dosing,animals were sampled at 30 min intervals. […]
GH levels in porcine sera were measured by homologous double-antibody RIA, employing porcine GH standard (lot# AFP-10859C) supplied by Dr. A. Parlow (Research and Education Institute, Torrance, Calif.) and baboon anti-pGH sera (B-58: Hoffmann-La Roche). […] GH area under the curve (GH AUC) for the treatment period (0-360 min) was determined by trapezoidal summation. […]

*1 amine or outer side, *2 acyl side, *3 side chain or, on linkers, in order; H or OH if unused. Where a SMILES comes first, the peptide text is derived from it. Where no end group is shown, it is not given here. [ ]: non-standard residue; d: D form. The star is where a group is joined. Desaminotyrosyl = O=C(CCc1ccc(O)cc1)*; βAsp = O=C(O)[C@H](CC(=O)[*:2])N[*:1]

For the compound “[isoAsp^8, Leu^27 ]-GRF(1-32)-NH2 (YADAIFT[βAsp]SYRKVLGQLSARKLLQDILSRQQG-NH2; N-terminus assumed; SMILES CC[C@H](C)[C@H](NC(=O)[C@H](C)NC(=O)[C@H](CC(=O)O)NC(=O)[C@H](C)NC(=O)[C@@H](N)Cc1ccc(O)cc1)C(=O)N[C@@H](Cc1ccccc1)C(=O)N[C@H](C(=O)N[C@@H](CC(=O)N[C@@H](CO)C(=O)N[C@@H](Cc1ccc(O)cc1)C(=O)N[C@@H](CCCNC(=N)N)C(=O)N[C@@H](CCCCN)C(=O)N[C@H](C(=O)N[C@@H](CC(C)C)C(=O)NCC(=O)N[C@@H](CCC(N)=O)C(=O)N[C@@H](CC(C)C)C(=O)N[C@@H](CO)C(=O)N[C@@H](C)C(=O)N[C@@H](CCCNC(=N)N)C(=O)N[C@@H](CCCCN)C(=O)N[C@@H](CC(C)C)C(=O)N[C@@H](CC(C)C)C(=O)N[C@@H](CCC(N)=O)C(=O)N[C@@H](CC(=O)O)C(=O)N[C@H](C(=O)N[C@@H](CC(C)C)C(=O)N[C@@H](CO)C(=O)N[C@@H](CCCNC(=N)N)C(=O)N[C@@H](CCC(N)=O)C(=O)N[C@@H](CCC(N)=O)C(=O)NCC(N)=O)[C@@H](C)CC)C(C)C)C(=O)O)[C@@H](C)O) [deamidation product of [Leu^27]-GRF(1-32)-NH2]”, the Biological activities result in assay [1] is on record as “substantially reduced biological activities”.

With GRF(1-29)-NH2, the “Intrinsic activity and potency in vitro” value in assay [2] is “full intrinsic activity and potency”.

Take “[Asp^8, Leu^27 ]-GRF(1-32)-NH2 (YADAIFTDSYRKVLGQLSARKLLQDILSRQQG-NH2) [deamidation product of [Leu^27]-GRF(1-32)-NH2]”: the Biological activities entry in assay [1] was “substantially reduced biological activities”.

For `CC[C@H](C)[C@H](NC(=O)[C@H](C)NC(=O)[C@H](CC(=O)O)NC(=O)[C@@H](C)NC(=O)CCc1ccc(O)cc1)C(=O)N[C@@H](Cc1ccccc1)C(=O)N[C@H](C(=O)N[C@@H](CC(N)=O)C(=O)N[C@@H](CO)C(=O)N[C@@H](Cc1ccc(O)cc1)C(=O)N[C@@H](CCCNC(=N)N)C(=O)N[C@@H](CCCCN)C(=O)N[C@H](C(=O)N[C@@H](CC(C)C)C(=O)N[C@@H](C)C(=O)N[C@@H](CCC(N)=O)C(=O)N[C@@H](CC(C)C)C(=O)N[C@@H](CO)C(=O)N[C@@H](C)C(=O)N[C@@H](CCCNC(=N)N)C(=O)N[C@@H](CCCCN)C(=O)N[C@@H](CC(C)C)C(=O)N[C@@H](CC(C)C)C(=O)N[C@@H](CCC(N)=O)C(=O)N[C@@H](CC(=O)O)C(=O)N[C@H](C(=O)N[C@@H](CCSC)C(=O)N[C@@H](CO)C(=O)N[C@@H](CCCNC(=N)N)C(N)=O)[C@@H](C)CC)C(C)C)[C@@H](C)O` [SEQ ID NO: 34-NH2, reference compound] (Desaminotyrosyl-[dA]DAIFTNSYRKVLAQLSARKLLQDIMSR-NH2), the “Potency of GRF Analogs Relative to GRF(1-44)-NH2 (SEQ ID NO: 1-NH2)” value in the assay with rat pituitary cells was found to be 4.71. The “Times more potent than GRF(1-29)-NH2 (SEQ ID NO: 3-NH2)” value with crossbred swine is recorded as 10-15 times.

Values taken from patent publication US5846936A, “Growth hormone releasing factor analogs” (Roche Vitamins Inc., priority 1995, dated 1998).
